Key:
Assay type in all cases: functional
[1] = test system: HeLa; experiment: Antitumor activity against human HeLa cell line by MTT assay
[2] = test system: PC-3; experiment: Antitumor activity against human PC-3M-1E8 cell line by SRB assay
[3] = test system: Bel-7402; experiment: Antitumor activity against human Bel7402 cell line by MTT assay
[4] = test system: Bel-7402; experiment: Antitumor activity against human Bel7402 cell line by SRB assay
[5] = test system: HL-60; experiment: Antitumor activity against human HL60 cell line by SRB assay
[6] = test system: HeLa; experiment: Antitumor activity against human HeLa cell line by SRB assay
[7] = test system: MDA-MB-435; experiment: Antitumor activity against human MDA-MB-435 cell line by SRB assay
[8] = test system: BGC-823; experiment: Antitumor activity against human BGC823 cell line by SRB assay
[9] = test system: PC-3; experiment: Antitumor activity against human PC-3M-1E8 cell line by MTT assay

Structure (SMILES)	Inhibition [1]	Inhibition [2]	Inhibition [3]	Inhibition [4]	Inhibition [5]	Inhibition [6]	Inhibition [7]	Inhibition [8]	Inhibition [9]
C=CC(C)(CC/C=C(/CO)C(=O)O[C@H]1CC2(C(=O)O[C@@H]3O[C@H](CO)[C@@H](O)[C@H](O)[C@@H]3O[C@H]3O[C@H](C)[C@@H](O[C@H]4O[C@H](CO)[C@@H](O)[C@@H]4O)[C@H](O[C@H]4O[C@@H](CO)[C@H](O)[C@@H](O)[C@@H]4O)[C@@H]3O)C(CC1(C)C)C1=CCC3C4(C)CC[C@H](O[C@@H]5O[C@H](CO[C@H]6O[C@@H](C)[C@@H](O)[C@@H](O)[C@@H]6O[C@H]6OC[C@H](O)[C@@H](O)[C@@H]6O)[C@@H](O)[C@H](O)[C@H]5OC5O[C@H](CO)[C@@H](O)[C@H](O)[C@H]5O)C(C)(C)C4CCC3(C)[C@]1(C)C[C@H]2O)O[C@H]1O[C@@H](C)[C@H](O)[C@@H](O)[C@@H]1O (stereo not given in full) [JULIBROSIDE J31]	64.33%	80.85%	44.34%	46.61%	39.33%	83.48%	80.41%	15.16%	94.71%
C=CC(C)(CC/C=C(/CO)C(=O)O[C@H]1CC2(C(=O)O[C@@H]3O[C@H](CO)[C@@H](O)[C@H](O)[C@@H]3O[C@H]3O[C@H](C)[C@@H](O[C@H]4O[C@H](CO)[C@@H](O)[C@@H]4O)[C@H](O[C@H]4O[C@@H](CO)[C@H](O)[C@@H](O)[C@@H]4O)[C@@H]3O)C(CC1(C)C)C1=CCC3C4(C)CC[C@H](O[C@@H]5O[C@H](CO[C@H]6O[C@@H](C)[C@@H](O)[C@@H](O)[C@@H]6O[C@H]6OC[C@H](O)[C@@H](O)[C@@H]6O)[C@@H](O)[C@H](O)[C@H]5NC(C)=O)C(C)(C)C4CCC3(C)[C@]1(C)C[C@H]2O)O[C@H]1OC[C@H](O)[C@@H](O)[C@@H]1O (stereo not given in full) [JULIBROSIDE J30]	92.19%	84.98%	61.87%	57.49%	25.59%	91.65%	75.68%	46.66%	75.96%
C=C[C@@](C)(CC/C=C(\CO)C(=O)O[C@H]1C[C@]2(C(=O)O[C@@H]3O[C@H](CO)[C@@H](O)[C@H](O)[C@H]3O[C@@H]3O[C@@H](C)[C@H](O[C@@H]4O[C@@H](CO)[C@H](O)[C@H]4O)[C@@H](O[C@@H]4O[C@H](CO)[C@@H](O)[C@H](O)[C@H]4O)[C@H]3O)[C@H](O)C[C@]3(C)C(=CC[C@@H]4[C@@]5(C)CC[C@H](O[C@@H]6O[C@H](CO[C@@H]7O[C@H](C)[C@H](O)[C@H](O)[C@H]7O[C@@H]7OC[C@@H](O)[C@H](O)[C@H]7O)[C@@H](O)[C@H](O)[C@H]6NC(C)=O)C(C)(C)[C@@H]5CC[C@]43C)[C@@H]2CC1(C)C)O[C@@H]1O[C@H](C)[C@@H](O)[C@H](O)[C@H]1O [JULIBROSIDE J29]	87.75%	85.37%	50.37%	67.14%	25.35%	94.9%	84.47%	52.9%	81.4%
COc1cccc2c1C(=O)c1c(O)c3c(c(O)c1C2=O)C[C@@](O)(C(=O)CO)C[C@@H]3O[C@H]1C[C@H](N)[C@H](O)[C@H](C)O1 [DOXORUBICIN]	76.96%		51.26%						91.61%

Reference: ChEMBL document CHEMBL1147013, “Three anti-tumor saponins from Albizia julibrissin” (2006)
